The source of these data is ChEMBL document CHEMBL1153699, “Discovery and optimization of antibacterial AccC inhibitors” (Bioorg Med Chem Lett, 2009).

The structures appear in SMILES notation. Values after ≈ are worked out from the molar mass of the structure shown.

By IC50 is commonly meant the midpoint of a concentration-inhibition curve. Usually MIC stands for the least concentration at which growth counts as inhibited. Lower therefore signals inhibition by little substance.

Tested on in one assay: not listed separately
Briefly: Inhibition of Escherichia coli HS294 ACCase.
Conditions: not given; call rule not given here
In the case of `COc1cc(Cc2cnc(N)nc2N)cc(OC)c1OC` [TRIMETHOPRIM], the IC50 result was “Not Active”.

The same assay, now with this note: read-out: IC50.
On to `CSc1cc(C(N)=O)cc2nc(NCc3ccccc3Cl)n(C[C@H]3CCCCC[C@H]3O)c12`, for which the 50% inhibitory concentration (IC50) came to 170 nM.

`NC(=O)c1ccc2c(c1)nc(NCc1ccccc1Cl)n2CCc1c[nH]c2ccccc12`: the IC50 turned out to be 9500 nM.

As for `NC(=O)c1ccc2c(c1)nc(NCc1ccccc1C(F)(F)F)n2CC1CCCCC1`, the IC50 turned out to be 144000 nM.

Consider `CC(C)(CO)Cn1c(NCc2ccccc2Cl)nc2nc(C(N)=O)ccc21`, for which the IC50 was 20 nM.

As for `NC(=O)c1ccc2c(c1)nc(NCc1ccccc1Cl)n2CCCO`, the IC50 is 2000 nM.

`CC1CCCCC1n1c(NCc2ccccc2Cl)nc2cc(C(N)=O)ccc21` (centres undefined): the IC50 is 2100 nM.

For `NC(=O)c1ccc2c(n1)nc(NCc1ccccc1Cl)n2CCCO`, the IC50 was 190 nM.

With `NC(=O)c1cc(N)c2c(c1)nc(NCc1ccccc1Cl)n2C[C@H]1CCCCC[C@H]1O`, the half-maximal inhibitory concentration (IC50) came out at 5000 nM.

`NC(=O)c1ccc2c(n1)nc(NCc1ccccc1Cl)n2Cc1ccccc1`: the IC50 is 170 nM.

Turning to `NC(=O)c1ccc2c(c1)nc(NCc1cccc3ccccc13)n2CC1CCCCC1`, the IC50 came to 171000 nM.

Regarding `NC(=O)c1ccc2c(c1)nc(NCc1ccccc1F)n2CC1CCCCC1`, the half-inhibitory concentration (IC50) is 16900 nM.

Turning to `NC(=O)c1ccc2c(c1)nc(NCc1c(Cl)cccc1Cl)n2CC1CCCCC1`, the IC50 is 241000 nM.

On to `C[C@H](Nc1nc2cc(C(N)=O)ccc2n1CC1CCCCC1)c1ccccc1`, for which the IC50 came out at 41000 nM.

Consider `C[C@@H](c1ccccc1)n1c(NCc2ccccc2Cl)nc2nc(C(N)=O)ccc21`, for which the 50% inhibitory concentration (IC50) came to 2060 nM.

`CS(=O)(=O)c1cc(C(N)=O)cc2nc(NCc3ccccc3Cl)n(C[C@H]3CCCCC[C@H]3O)c12`: the IC50 amounted to 60 nM.

`CC(C)CCNS(=O)(=O)c1cc(C(N)=O)cc2nc(NCc3ccccc3Cl)n(C[C@H]3CCCCC[C@H]3O)c12`: the IC50 came out at 800 nM.

Turning to `NC(=O)c1ccc2c(n1)nc(NCc1ccccc1Cl)n2Cc1ccc2c(c1)OCCO2`, the concentration for half-maximal inhibition (IC50) was 2750 nM.

`CNS(=O)(=O)c1cc(C(N)=O)cc2nc(NCc3ccccc3Cl)n(C[C@H]3CCCCC[C@H]3O)c12`: the IC50 stood at 380 nM.

As to `Cn1c(NCc2ccccc2Cl)nc2cc(C(N)=O)cc(N)c21`, the IC50 came to 50000 nM.

Take `CC(C)(C)OCCCn1c(NCc2ccccc2Cl)nc2nc(C(N)=O)ccc21`: the IC50 came out at 350 nM.

In the case of `NC(=O)c1ccc2c(n1)nc(NCc1ccccc1Cl)n2CC1CCCCC1`, the IC50 turned out to be 160 nM.

With `NC(=O)c1ccc2c(n1)nc(NCc1ccccc1Cl)n2C1CCCCC1`, the concentration for half-maximal inhibition (IC50) turned out to be 130 nM.

Consider `COc1ccccc1Cn1c(NCc2ccccc2Cl)nc2nc(C(N)=O)ccc21`, for which the IC50 stood at 2840 nM.

With `NC(=O)c1cc(S(=O)(=O)NCc2ccc(Cl)cc2)c2c(c1)nc(NCc1ccccc1Cl)n2C[C@H]1CCCCC[C@H]1O`, the 50% inhibitory concentration (IC50) came out at 2100 nM.

On to `NC(=O)c1ccc2c(c1)nc(NCc1ccc(Cl)cc1)n2CC1CCCCC1`, for which the IC50 is 63000 nM.

With `NC(=O)c1ccc2c(c1)nc(NCc1ccccc1Cl)n2[C@@H]1CCc2ccccc21`, the IC50 worked out at 700 nM.

Take `Cc1ccccc1CNc1nc2cc(C(N)=O)ccc2n1CC1CCCCC1`: the IC50 was found to be 28000 nM.

With `NC(=O)c1ccc2c(c1)nc(NCc1ccccc1Cl)n2CC1CCCCC1`, the IC50 is 5000 nM.

On to `NC(=O)c1ccc2c(c1)nc(NCc1ccccc1Br)n2CC1CCCCC1`, for which the IC50 was 143000 nM.

For `NC(=O)c1ccc2c(c1)nc(NCc1ccccc1Cl)n2CC[C@H](O)CO`, the IC50 turned out to be 400 nM.

In the case of `NC(=O)c1ccc2c(c1)nc(NCc1ccccc1Cl)n2C[C@H]1CCCCC[C@H]1O`, the IC50 is 500 nM.

With `NC(=O)c1ccc2c(c1)nc(NCc1ccccc1)n2CC1CCCCC1`, the half-maximal inhibitory concentration (IC50) is 15800 nM.

Turning to `Cn1c(NCc2ccccc2Cl)nc2cc(C(N)=O)cc([N+](=O)[O-])c21`, the half-inhibitory concentration (IC50) was 3500 nM.

Regarding `CC(C)(CO)Cn1c(NCc2ccccc2Cl)nc2cc(C(N)=O)ccc21`, the IC50 is 700 nM.

With `NC(=O)c1cc(S(N)(=O)=O)c2c(c1)nc(NCc1ccccc1Cl)n2C[C@H]1CCCCC[C@H]1O`, the 50% inhibitory concentration (IC50) is 700 nM.

Regarding `COc1ccccc1CNc1nc2cc(C(N)=O)ccc2n1CC1CCCCC1`, the half-inhibitory concentration (IC50) is 139000 nM.

For `NC(=O)c1ccc2c(c1)nc(NCc1ccccc1Cl)n2[C@H]1CCc2ccccc21`, the IC50 amounted to 14700 nM.

On to `NC(=O)c1ccc2c(c1)nc(NCc1ccccc1Cl)n2CCc1ccccc1`, for which the IC50 amounted to 8900 nM.

Take `NC(=O)c1cc(Br)c2c(c1)nc(NCc1ccccc1Cl)n2C[C@H]1CCCCC[C@H]1O`: the IC50 turned out to be 130 nM.

`NC(=O)c1ccc2c(n1)nc(NCc1ccccc1Cl)n2CC1COc2ccccc2O1` (centres undefined): the IC50 turned out to be 300 nM.

With `NC(=O)c1ccc2c(n1)nc(NCc1ccccc1Cl)n2CC(O)COc1ccccc1` (centres undefined), the IC50 came to 3010 nM.

Turning to `NC(=O)c1cc([N+](=O)[O-])c2c(c1)nc(NCc1ccccc1Cl)n2[C@H]1CCc2ccccc21`, the IC50 is 90 nM.

For `C[C@H](O)Cn1c(NCc2ccccc2Cl)nc2nc(C(N)=O)ccc21`, the IC50 stood at 270 nM.

For `CNC(=O)c1ccc2c(c1)nc(NCc1ccccc1Cl)n2CC1CCCCC1`, the IC50 is over 20000 nM.

`NC(=O)c1ccc2c(n1)nc(NCc1ccccc1Cl)n2Cc1cccc(OC(F)(F)F)c1`: the concentration for half-maximal inhibition (IC50) turned out to be 40000 nM.

In the case of `NC(=O)c1cc(Cl)c2c(c1)nc(NCc1ccccc1Cl)n2CC1CCCCC1`, the concentration for half-maximal inhibition (IC50) is 1600 nM.

`NC(=O)c1ccc2c(n1)nc(NCc1ccccc1Cl)n2[C@@H]1CCc2ccccc21`: the IC50 came out at 20 nM.

Consider `NC(=O)c1ccc2c(c1)nc(NCc1cccc(Cl)c1)n2CC1CCCCC1`, for which the IC50 is 40000 nM.

Consider `C[S+]([O-])c1cc(C(N)=O)cc2nc(NCc3ccccc3Cl)n(C[C@H]3CCCCC[C@H]3O)c12` (some centres undefined), for which the IC50 was found to be 260 nM.

For `CC(C)S(=O)(=O)c1cc(C(N)=O)cc2nc(NCc3ccccc3Cl)n(C[C@H]3CCCCC[C@H]3O)c12`, the IC50 came out at 100 nM.

Turning to `NC(=O)c1ccc2c(c1)nc(NCc1ccccc1Cl)n2[C@H]1CCCc2ccccc21`, the IC50 was 1300 nM.

As to `NC(=O)c1cc([N+](=O)[O-])c2c(c1)nc(NCc1ccccc1Cl)n2C[C@H]1CCCCC[C@H]1O`, the IC50 turned out to be 10 nM.

Another assay concerns Escherichia coli. Kind of assay: Antimicrobial activity against Escherichia coli HS294. Format: functional.
Conditions: not given
The compound `CC(C)(CO)Cn1c(NCc2ccccc2Cl)nc2nc(C(N)=O)ccc21` returned an MIC of 1.6 µg/mL (≈ 4.13 µM).

In the case of `CS(=O)(=O)c1cc(C(N)=O)cc2nc(NCc3ccccc3Cl)n(C[C@H]3CCCCC[C@H]3O)c12`, the MIC was found to be 1.6 µg/mL (≈ 3.17 µM).

Consider `NC(=O)c1cc(Br)c2c(c1)nc(NCc1ccccc1Cl)n2C[C@H]1CCCCC[C@H]1O`, for which the MIC amounted to 0.4 µg/mL (≈ 0.791 µM).

On to `NC(=O)c1ccc2c(n1)nc(NCc1ccccc1Cl)n2[C@@H]1CCc2ccccc21`, for which the MIC worked out at 0.8 µg/mL (≈ 1.91 µM).

Consider `C[S+]([O-])c1cc(C(N)=O)cc2nc(NCc3ccccc3Cl)n(C[C@H]3CCCCC[C@H]3O)c12` (some centres undefined), for which the MIC came out at 12.5 µg/mL (≈ 25.6 µM).

Compound `NC(=O)c1cc([N+](=O)[O-])c2c(c1)nc(NCc1ccccc1Cl)n2C[C@H]1CCCCC[C@H]1O` showed an MIC of 0.2 µg/mL (≈ 0.424 µM).
